# Source: PubChem BioAssay (NCI)
#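 1) Cells in 96-well plates. 2) Compound, 48 h, 5 concentrations. 3) Linear interpolation between surrounding doses. 4) Unreached endpoint = highest concentration. Here, GI50 denotes the concentration required for 50% inhibition of growth. TGI: total growth inhibition.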
# Experiments:
# Assay in all cases: DTP human tumour cell line panel, 48 h
# SN12C renal = system: SN12C renal
# ACHN renal = system: ACHN renal
# OVCAR-4 ovarian = system: OVCAR-4 ovarian
# U251 CNS = system: U251 CNS
# SNB-19 CNS = system: SNB-19 CNS
# SNB-75 CNS = system: SNB-75 CNS
# NCI-H23 lung = system: NCI-H23 lung
# MALME-3M melanoma = system: MALME-3M melanoma
# DU-145 prostate = system: DU-145 prostate
# SF-539 CNS = system: SF-539 CNS
# SF-295 CNS = system: SF-295 CNS
# EKVX NSCLC = system: EKVX NSCLC
# SF-268 CNS = system: SF-268 CNS
# MOLT-4 leukemia = system: MOLT-4 leukemia
# HT29 colon = system: HT29 colon
# M14 melanoma = system: M14 melanoma
# MDA-MB-435 = system: MDA-MB-435
# HOP-62 NSCLC = system: HOP-62 NSCLC
# OVCAR-5 ovarian = system: OVCAR-5 ovarian
# SK-OV-3 ovarian = system: SK-OV-3 ovarian
# HS 578T breast = system: HS 578T breast
# 786-0 renal = system: 786-0 renal
# A549 NSCLC = system: A549 NSCLC
# PC-3 prostate = system: PC-3 prostate
# HOP-92 NSCLC = system: HOP-92 NSCLC
# UACC-62 melanoma = system: UACC-62 melanoma
# HCC-2998 colon = system: HCC-2998 colon
# RXF 393 renal = system: RXF 393 renal
# SK-MEL-5 melanoma = system: SK-MEL-5 melanoma
# NCI-H460 lung = system: NCI-H460 lung
# CCRF-CEM leukemia = system: CCRF-CEM leukemia
# SW-620 colon = system: SW-620 colon
# OVCAR-3 ovarian = system: OVCAR-3 ovarian
# SK-MEL-2 melanoma = system: SK-MEL-2 melanoma
# BT-549 breast = system: BT-549 breast
# RPMI-8226 leukemia = system: RPMI-8226 leukemia
# UO-31 renal = system: UO-31 renal
# KM12 colon = system: KM12 colon
# HCT-116 colon = system: HCT-116 colon
# T-47D breast = system: T-47D breast
# HCT-15 colon = system: HCT-15 colon
# LOX IMVI melanoma = system: LOX IMVI melanoma
# SR leukemia = system: SR leukemia
# A498 renal = system: A498 renal
# SK-MEL-28 melanoma = system: SK-MEL-28 melanoma
# IGROV1 ovarian = system: IGROV1 ovarian
# HL-60(TB) leukemia = system: HL-60(TB) leukemia
# OVCAR-8 ovarian = system: OVCAR-8 ovarian
# MDA-MB-231 breast = system: MDA-MB-231 breast
# NCI-H522 lung = system: NCI-H522 lung
# NCI/ADR-RES ovarian = system: NCI/ADR-RES ovarian
# UACC-257 melanoma = system: UACC-257 melanoma
# MCF7 breast = system: MCF7 breast
# COLO 205 colon = system: COLO 205 colon
# TK-10 renal = system: TK-10 renal
# NCI-H226 lung = system: NCI-H226 lung
structure (smiles),measurement,setting,value
CCCCCCCCCCCCCCCCCCNCc1ccc(Cl)cc1,GI50,SN12C renal,3.63 µM
same,TGI,SN12C renal,13.8 µM
same,GI50,ACHN renal,2.15 µM
same,TGI,ACHN renal,5.54 µM
same,GI50,OVCAR-4 ovarian,1.99 µM
same,TGI,OVCAR-4 ovarian,4.76 µM
same,GI50,U251 CNS,1.96 µM
same,TGI,U251 CNS,3.85 µM
same,GI50,SNB-19 CNS,3.31 µM
same,TGI,SNB-19 CNS,12 µM
same,GI50,SNB-75 CNS,9.15 µM
same,TGI,SNB-75 CNS,27.3 µM
same,GI50,NCI-H23 lung,3.07 µM
same,TGI,NCI-H23 lung,12 µM
same,GI50,MALME-3M melanoma,7.37 µM
same,TGI,MALME-3M melanoma,22.6 µM
same,GI50,DU-145 prostate,2.06 µM
same,TGI,DU-145 prostate,4.44 µM
same,GI50,SF-539 CNS,12.1 µM
same,TGI,SF-539 CNS,29.4 µM
same,GI50,SF-295 CNS,12.6 µM
same,TGI,SF-295 CNS,28.8 µM
same,GI50,EKVX NSCLC,3.84 µM
same,TGI,EKVX NSCLC,18.7 µM
same,GI50,SF-268 CNS,3.82 µM
same,TGI,SF-268 CNS,18.2 µM
same,GI50,MOLT-4 leukemia,1.99 µM
same,TGI,MOLT-4 leukemia,4.55 µM
same,GI50,HT29 colon,1.73 µM
same,TGI,HT29 colon,3.46 µM
same,GI50,M14 melanoma,2.28 µM
same,TGI,M14 melanoma,7.04 µM
same,GI50,MDA-MB-435,3.45 µM
same,TGI,MDA-MB-435,15.6 µM
same,GI50,HOP-62 NSCLC,3.17 µM
same,TGI,HOP-62 NSCLC,12.8 µM
same,GI50,OVCAR-5 ovarian,2.65 µM
same,TGI,OVCAR-5 ovarian,12.1 µM
same,GI50,SK-OV-3 ovarian,4.02 µM
same,TGI,SK-OV-3 ovarian,16.9 µM
same,GI50,HS 578T breast,7.97 µM
same,TGI,HS 578T breast,30.4 µM
same,GI50,786-0 renal,8.61 µM
same,TGI,786-0 renal,25.1 µM
same,GI50,A549 NSCLC,2.52 µM
same,TGI,A549 NSCLC,5.65 µM
same,GI50,PC-3 prostate,1.94 µM
same,TGI,PC-3 prostate,3.96 µM
same,GI50,HOP-92 NSCLC,1.83 µM
same,TGI,HOP-92 NSCLC,5.45 µM
same,GI50,UACC-62 melanoma,4.02 µM
same,TGI,UACC-62 melanoma,15.5 µM
same,GI50,HCC-2998 colon,4.58 µM
same,TGI,HCC-2998 colon,18.9 µM
same,GI50,RXF 393 renal,3.39 µM
same,TGI,RXF 393 renal,15.8 µM
same,GI50,SK-MEL-5 melanoma,15.7 µM
same,TGI,SK-MEL-5 melanoma,30.3 µM
same,GI50,NCI-H460 lung,2.05 µM
same,TGI,NCI-H460 lung,4 µM
same,GI50,CCRF-CEM leukemia,2.69 µM
same,TGI,CCRF-CEM leukemia,8.66 µM
same,GI50,SW-620 colon,1.87 µM
same,TGI,SW-620 colon,4.03 µM
same,GI50,OVCAR-3 ovarian,3.07 µM
same,TGI,OVCAR-3 ovarian,11 µM
same,GI50,SK-MEL-2 melanoma,8.65 µM
same,TGI,SK-MEL-2 melanoma,25.9 µM
same,GI50,BT-549 breast,17.3 µM
same,TGI,BT-549 breast,42.2 µM
same,GI50,RPMI-8226 leukemia,2.24 µM
same,TGI,RPMI-8226 leukemia,5.71 µM
same,GI50,UO-31 renal,1.6 µM
same,TGI,UO-31 renal,3.45 µM
same,GI50,KM12 colon,2.5 µM
same,TGI,KM12 colon,6.54 µM
same,GI50,HCT-116 colon,3.03 µM
same,TGI,HCT-116 colon,11.7 µM
same,GI50,T-47D breast,4.28 µM
same,TGI,T-47D breast,24.9 µM
same,GI50,HCT-15 colon,1.93 µM
same,TGI,HCT-15 colon,4.71 µM
same,GI50,LOX IMVI melanoma,2.04 µM
same,TGI,LOX IMVI melanoma,4.92 µM
same,GI50,SR leukemia,2.08 µM
same,TGI,SR leukemia,6.58 µM
same,GI50,A498 renal,14 µM
same,TGI,A498 renal,31.9 µM
same,GI50,SK-MEL-28 melanoma,13.8 µM
same,TGI,SK-MEL-28 melanoma,28.8 µM
same,GI50,IGROV1 ovarian,1.91 µM
same,TGI,IGROV1 ovarian,5.24 µM
same,GI50,HL-60(TB) leukemia,1.55 µM
same,TGI,HL-60(TB) leukemia,3.94 µM
same,GI50,OVCAR-8 ovarian,4.08 µM
same,TGI,OVCAR-8 ovarian,16.6 µM
same,GI50,MDA-MB-231 breast,1.84 µM
same,TGI,MDA-MB-231 breast,4.3 µM
same,GI50,NCI-H522 lung,2.52 µM
same,TGI,NCI-H522 lung,8.73 µM
same,GI50,NCI/ADR-RES ovarian,3.58 µM
same,TGI,NCI/ADR-RES ovarian,18.2 µM
same,GI50,UACC-257 melanoma,18.6 µM
same,TGI,UACC-257 melanoma,36 µM
same,GI50,MCF7 breast,2.93 µM
same,TGI,MCF7 breast,11.5 µM
same,GI50,COLO 205 colon,1.96 µM
same,TGI,COLO 205 colon,4 µM
same,GI50,TK-10 renal,2.3 µM
same,TGI,TK-10 renal,9.03 µM
same,GI50,NCI-H226 lung,3.7 µM
same,TGI,NCI-H226 lung,19.2 µM
